Experimental data taken from ChEMBL document CHEMBL2069259, “Preclinical strategy to reduce clinical hepatotoxicity using in vitro bioactivation data for >200 compounds” (Chem Res Toxicol, 2012).
Starred links: 1 amine or outer side, 2 acyl side, 3 side chain; linkers in the order of their positions; H or OH if unused. Positions of bridges follow the written chain, without caps; N, C: chain ends. Non-standard residues stand in square brackets, D forms with d. Residues, ends and D or L forms follow the SMILES beside them. Chains are numbered I, II in the order given. Actinocin(9to1) = Cc1c2oc3c(C)ccc(C(=O)[*:1])c3nc-2c(C(=O)[*:2])c(N)c1=O; NMeV = CN[C@H](C(=O)O)C(C)C; Sar = CNCC(=O)O

Legend:
Liver microsomes [1] = experiment: Metabolic stability in human liver microsomes assessed as high signal/noise ratio (S/N of >100) by measuring GSH adduct formation at 100 uM after 90 mins by HPLC-MS analysis; conditions: 1.5 h
CYP2D6 = CYP2D6 (Homo sapiens, UniProt P10635); experiment: Inhibition of human CYP2D6 assessed as ratio of IC50 in absence of NADPH to IC50 for presence of NADPH using 4-methylaminoethyl-7-methoxycoumarin as substrate after 30 mins
CYP1A2 = target: T1, CYP1A2 (Homo sapiens, UniProt P05177); experiment: Inhibition of human CYP1A2 assessed as ratio of IC50 in absence of NADPH to IC50 for presence of NADPH using ethoxyresorufin as substrate after 30 mins
T1 sequence (P05177 whole entry): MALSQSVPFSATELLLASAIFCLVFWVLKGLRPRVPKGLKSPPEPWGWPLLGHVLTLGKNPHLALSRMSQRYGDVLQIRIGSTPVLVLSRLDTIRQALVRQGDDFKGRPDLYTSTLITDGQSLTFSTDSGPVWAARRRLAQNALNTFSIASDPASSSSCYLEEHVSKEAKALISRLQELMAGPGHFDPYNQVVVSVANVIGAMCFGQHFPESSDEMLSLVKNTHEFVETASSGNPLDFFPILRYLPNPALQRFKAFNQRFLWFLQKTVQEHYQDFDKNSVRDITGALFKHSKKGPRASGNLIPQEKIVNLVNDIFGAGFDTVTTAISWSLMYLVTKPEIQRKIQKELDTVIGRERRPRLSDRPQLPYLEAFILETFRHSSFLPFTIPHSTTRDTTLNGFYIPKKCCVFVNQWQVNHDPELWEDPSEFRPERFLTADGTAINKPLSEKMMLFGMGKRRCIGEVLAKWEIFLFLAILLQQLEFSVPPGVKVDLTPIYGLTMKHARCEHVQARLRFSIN

CYP2C9 = CYP2C9 (Homo sapiens, UniProt P11712); experiment: Inhibition of human CYP2C9 assessed as ratio of IC50 in absence of NADPH to IC50 for presence of NADPH using 7-methoxy-4-trifluoromethylcoumarin-3-acetic acid as substrate after 30 mins
Liver microsomes [2] = experiment: Metabolic stability in human liver microsomes assessed as low signal/noise ratio (S/N of 1 to 10) by measuring GSH adduct formation at 100 uM after 90 mins by HPLC-MS analysis; type: ADME, Microsome; conditions: 1.5 h
CYP3A4 [3] = target: T2, CYP3A4 (Homo sapiens, UniProt P08684); experiment: Inhibition of human CYP3A4 assessed as ratio of IC50 in absence of NADPH to IC50 for presence of NADPH using 7-benzyloxyquinoline as substrate after 30 mins
CYP3A4 [4] = target: T2, CYP3A4; experiment: Inhibition of human CYP3A4 assessed as ratio of IC50 in absence of NADPH to IC50 for presence of NADPH using diethoxyfluorescein as substrate after 30 mins
Liver microsomes [5] = conditions: human, 1.5 h, 100 µM
CYP2C19 = CYP2C19 (Homo sapiens, UniProt P33261); experiment: Inhibition of human CYP2C19 assessed as ratio of IC50 in absence of NADPH to IC50 for presence of NADPH using 3-butyryl-7-methoxycoumarin as substrate after 30 mins
Liver microsomes [6] = experiment: Metabolic stability in human liver microsomes assessed as GSH adduct formation at 100 uM after 90 mins by HPLC-MS analysis; conditions: 1.5 h
[7] = probe 4-methylaminoethyl-7-methoxycoumarin
[8] = probe 3-butyryl-7-methoxycoumarin
[9] = probe 7-methoxy-4-trifluoromethylcoumarin-3-acetic acid

Sequence of CYP2C9 (P11712 whole entry): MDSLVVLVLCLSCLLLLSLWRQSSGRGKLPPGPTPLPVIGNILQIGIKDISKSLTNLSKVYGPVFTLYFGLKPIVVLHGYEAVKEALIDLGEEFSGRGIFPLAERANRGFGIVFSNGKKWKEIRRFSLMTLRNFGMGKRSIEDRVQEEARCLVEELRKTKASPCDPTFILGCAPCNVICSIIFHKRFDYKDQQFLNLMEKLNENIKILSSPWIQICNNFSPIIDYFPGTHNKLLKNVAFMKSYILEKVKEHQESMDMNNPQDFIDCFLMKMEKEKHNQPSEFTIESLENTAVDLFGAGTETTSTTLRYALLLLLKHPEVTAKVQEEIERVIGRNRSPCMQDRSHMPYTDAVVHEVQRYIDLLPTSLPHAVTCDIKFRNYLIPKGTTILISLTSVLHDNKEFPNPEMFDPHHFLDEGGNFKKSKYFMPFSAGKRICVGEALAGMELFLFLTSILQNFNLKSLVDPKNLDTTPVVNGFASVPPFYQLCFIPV
Sequence of CYP2D6 (P10635 whole entry): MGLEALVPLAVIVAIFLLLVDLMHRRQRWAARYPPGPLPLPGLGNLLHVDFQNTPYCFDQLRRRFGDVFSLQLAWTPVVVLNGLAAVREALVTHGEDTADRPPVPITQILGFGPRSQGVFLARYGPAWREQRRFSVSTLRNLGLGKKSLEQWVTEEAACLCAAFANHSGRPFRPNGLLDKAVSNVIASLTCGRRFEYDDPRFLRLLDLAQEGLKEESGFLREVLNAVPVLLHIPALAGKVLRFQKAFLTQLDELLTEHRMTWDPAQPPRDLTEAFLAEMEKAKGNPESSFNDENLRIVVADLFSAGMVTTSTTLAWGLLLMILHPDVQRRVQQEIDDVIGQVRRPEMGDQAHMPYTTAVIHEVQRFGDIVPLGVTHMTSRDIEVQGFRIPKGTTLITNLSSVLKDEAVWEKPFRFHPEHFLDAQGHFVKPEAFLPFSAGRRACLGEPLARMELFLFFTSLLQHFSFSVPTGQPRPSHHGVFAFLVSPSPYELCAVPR
Sequence of CYP2C19 (P33261 whole entry): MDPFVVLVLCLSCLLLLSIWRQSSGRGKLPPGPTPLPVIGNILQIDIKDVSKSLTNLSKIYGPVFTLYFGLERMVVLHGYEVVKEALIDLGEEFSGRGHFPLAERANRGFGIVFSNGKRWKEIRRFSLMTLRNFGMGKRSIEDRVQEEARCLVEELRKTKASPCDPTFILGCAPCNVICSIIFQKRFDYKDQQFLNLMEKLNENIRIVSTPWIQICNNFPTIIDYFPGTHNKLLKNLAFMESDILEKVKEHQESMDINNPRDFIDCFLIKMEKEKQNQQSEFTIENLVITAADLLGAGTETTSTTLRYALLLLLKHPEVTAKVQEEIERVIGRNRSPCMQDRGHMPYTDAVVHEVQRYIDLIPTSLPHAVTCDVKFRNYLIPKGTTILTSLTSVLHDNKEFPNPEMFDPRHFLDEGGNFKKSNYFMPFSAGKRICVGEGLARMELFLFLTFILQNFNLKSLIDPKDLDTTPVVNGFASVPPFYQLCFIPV
T2 sequence (P08684 whole entry): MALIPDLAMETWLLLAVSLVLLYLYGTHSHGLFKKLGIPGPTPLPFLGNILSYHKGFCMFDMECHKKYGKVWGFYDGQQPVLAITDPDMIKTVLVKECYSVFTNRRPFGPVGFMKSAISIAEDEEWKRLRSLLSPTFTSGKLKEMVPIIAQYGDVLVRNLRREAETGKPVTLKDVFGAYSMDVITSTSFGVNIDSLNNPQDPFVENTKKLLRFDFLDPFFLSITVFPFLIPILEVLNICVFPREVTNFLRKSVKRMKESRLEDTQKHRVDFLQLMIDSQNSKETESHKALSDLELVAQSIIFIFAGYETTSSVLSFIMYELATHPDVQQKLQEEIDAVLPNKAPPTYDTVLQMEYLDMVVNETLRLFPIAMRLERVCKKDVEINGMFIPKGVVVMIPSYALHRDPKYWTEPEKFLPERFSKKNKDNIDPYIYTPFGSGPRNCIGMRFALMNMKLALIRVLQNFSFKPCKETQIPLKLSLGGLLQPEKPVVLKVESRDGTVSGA

Structure (SMILES): COCCCC/C(=N\OCCN)c1ccc(C(F)(F)F)cc1 [FLUVOXAMINE]
- Stability (Liver microsomes [1]): Unstable
- IC50 shift at 0.5 h (CYP2D6; [7]): 2
- IC50 shift at 0.5 h (CYP1A2; probe ethoxyresorufin): < 2

Structure (SMILES): C1CCC(C(CC2CCCCN2)C2CCCCC2)CC1 (centres undefined) [PERHEXILINE]
- IC50 shift at 0.5 h (CYP2C9): < 2

Structure (SMILES): CS(=O)(=O)Nc1ccc([N+](=O)[O-])cc1Oc1ccccc1 [NIMESULIDE]
- Stability (Liver microsomes [2]): Unstable
- IC50 shift at 0.5 h (CYP3A4 [3]): < 2
- IC50 shift at 0.5 h (CYP3A4 [4]): 2

Structure (SMILES): CC(C)C(=O)Nc1ccc([N+](=O)[O-])c(C(F)(F)F)c1 [FLUTAMIDE]
- IC50 shift at 0.5 h (CYP2D6): < 2
- IC50 shift at 0.5 h (CYP1A2): < 2
- Stability (Liver microsomes [5]): Unstable
- IC50 shift at 0.5 h (CYP3A4 [4]): < 2

Structure (SMILES): CCN(CC)CC#CCOC(=O)C(O)(c1ccccc1)C1CCCCC1 (centres undefined) [OXYBUTYNIN]
- Stability (Liver microsomes [1]): Unstable
- IC50 shift at 0.5 h (CYP2C19): > 5
- IC50 shift at 0.5 h (CYP2C9): < 2
- IC50 shift at 0.5 h (CYP1A2): > 2

Structure (SMILES): CC(COc1ccccc1)N(CCCl)Cc1ccccc1 (centres undefined) [PHENOXYBENZAMINE]
- Stability (Liver microsomes [1]): Unstable
- IC50 shift at 0.5 h (CYP2C19; [8]): 2
- IC50 shift at 0.5 h (CYP2C9; [9]): < 2
- IC50 shift at 0.5 h (CYP1A2; probe ethoxyresorufin): 2
- IC50 shift at 0.5 h (CYP3A4 [4]; probe diethoxyfluorescein): 2

Structure (SMILES): C[C@]12C=CC(=O)C=C1CC[C@@H]1[C@@H]2C(=O)C[C@@]2(C)[C@H]1CC[C@]2(O)C(=O)CO [PREDNISONE]
- Stability (Liver microsomes [2]): Unstable

Structure (SMILES): COc1ccc(CN(CCN(C)C)c2ccccn2)cc1 [PYRILAMINE]
- IC50 shift at 0.5 h (CYP2D6; [7]): 2
- Stability (Liver microsomes [5]): Unstable

Structure (SMILES): CNCCC(Oc1ccc(C(F)(F)F)cc1)c1ccccc1 (centres undefined) [FLUOXETINE]
- IC50 shift at 0.5 h (CYP2C19): > 5
- IC50 shift at 0.5 h (CYP3A4 [3]): > 5
- IC50 shift at 0.5 h (CYP2C9): 2
- Stability (Liver microsomes [6]): Stable
- IC50 shift at 0.5 h (CYP3A4 [4]): 2

Structure (SMILES): CC(c1cc2ccccc2s1)N(O)C(N)=O (centres undefined) [ZILEUTON]
- Stability (Liver microsomes [6]): Stable
- IC50 shift at 0.5 h (CYP1A2; probe ethoxyresorufin): > 5

Structure (SMILES): O=C(O)COc1ccc(C(=O)c2cccs2)c(Cl)c1Cl
- IC50 shift at 0.5 h (CYP2C19): < 2
- IC50 shift at 0.5 h (CYP2C9): 2
- Stability (Liver microsomes [6]): Stable

Structure (SMILES): CC1(C)[C@@H](O)CC[C@]2(C)[C@H]3C(=O)C=C4[C@@H]5C[C@@](C)(C(=O)O)CC[C@]5(C)CC[C@@]4(C)[C@]3(C)CC[C@@H]12 [ENOXOLONE]
- Stability (Liver microsomes [6]): Stable
- IC50 shift at 0.5 h (CYP1A2; probe ethoxyresorufin): 2

Structure (SMILES): C[N+]1(C)[C@@H]2CC[C@H]1C[C@@H](OC(=O)C(O)c1ccccc1)C2 (some centres undefined) [HOMATROPINE METHYLBROMIDE]
- IC50 shift at 0.5 h (CYP2D6; [7]): < 2

Structure (SMILES): Nc1c2c(nc3ccccc13)CCCC2 [TACRINE]
- IC50 shift at 0.5 h (CYP2C19): < 2
- IC50 shift at 0.5 h (CYP2C9): 2
- Stability (Liver microsomes [6]): Stable

Structure (SMILES): C[C@](N)(Cc1ccc(O)c(O)c1)C(=O)O [METHYLDOPA]
- Stability (Liver microsomes [2]): Unstable

Structure (SMILES): CC1=C(/C=C/C(C)=C/C=C/C(C)=C/C(=O)O)C(C)(C)CCC1 [TRETINOIN]
- IC50 shift at 0.5 h (CYP2C19; [8]): 2
- IC50 shift at 0.5 h (CYP3A4 [3]; probe 7-benzyloxyquinoline): > 5
- IC50 shift at 0.5 h (CYP2D6; [7]): 2
- Stability (Liver microsomes [6]): Stable
- IC50 shift at 0.5 h (CYP1A2; probe ethoxyresorufin): < 2
- IC50 shift at 0.5 h (CYP3A4 [4]; probe diethoxyfluorescein): 2

Structure (SMILES): Cc1c2oc3c(C)ccc(C(=O)N[C@@H]4C(=O)N[C@H](C(C)C)C(=O)N5CCC[C@H]5C(=O)N(C)CC(=O)N(C)[C@@H](C(C)C)C(=O)O[C@@H]4C)c3nc-2c(C(=O)N[C@@H]2C(=O)N[C@H](C(C)C)C(=O)N3CCC[C@H]3C(=O)N(C)CC(=O)N(C)[C@@H](C(C)C)C(=O)O[C@@H]2C)c(N)c1=O [DACTINOMYCIN] (I: T[dV]P[Sar][NMeV] / II: T[dV]P[Sar][NMeV]; ester I:1-I:C, II:1-II:C; linker I:N-II:N via Actinocin(9to1))
- IC50 shift at 0.5 h (CYP2C19; [8]): < 2
- IC50 shift at 0.5 h (CYP3A4 [3]; probe 7-benzyloxyquinoline): 2
- IC50 shift at 0.5 h (CYP2C9; [9]): 2
- Stability (Liver microsomes [6]): Stable

Structure (SMILES): NNC(=O)c1ccncc1 [ISONIAZID]
- IC50 shift at 0.5 h (CYP2C19): > 5
- IC50 shift at 0.5 h (CYP3A4 [3]): > 5
- IC50 shift at 0.5 h (CYP2D6): > 5
- Stability (Liver microsomes [6]): Stable
- IC50 shift at 0.5 h (CYP3A4 [4]): > 5

Structure (SMILES): CN1CCN(CCCN2c3ccccc3Sc3ccc(Cl)cc32)CC1 [PROCHLORPERAZINE]
- Stability (Liver microsomes [2]): Unstable

Structure (SMILES): Oc1ccc2c3c1O[C@H]1[C@@H](O)CC[C@@]4(O)[C@@H](C2)N(CC2CCC2)CC[C@]314 [NALBUPHINE]
- IC50 shift at 0.5 h (CYP2C9): 2
- Stability (Liver microsomes [6]): Stable

Structure (SMILES): NNCCc1ccccc1 [PHENELZINE]
- IC50 shift at 0.5 h (CYP2C19): > 5
- IC50 shift at 0.5 h (CYP2C9): 2
- IC50 shift at 0.5 h (CYP2D6): > 5
- IC50 shift at 0.5 h (CYP1A2): 2
- Stability (Liver microsomes [5]): Unstable
- IC50 shift at 0.5 h (CYP3A4 [4]): 2

Structure (SMILES): CN1C(C(=O)Nc2ccccn2)=C(O)c2ccccc2S1(=O)=O [PIROXICAM]
- Stability (Liver microsomes [2]): Unstable

Structure (SMILES): Nc1ccc(S(=O)(=O)Nc2ccnn2-c2ccccc2)cc1 [SULFAPHENAZOLE]
- Stability (Liver microsomes [2]): Unstable

Structure (SMILES): Cc1cc(C(C)(C)C)c(O)c(C(C)(C)C)c1 [BUTYLATED HYDROXYTOLUENE]
- Stability (Liver microsomes [2]): Unstable

Structure (SMILES): CC(C)OC(=O)C(C)(C)Oc1ccc(C(=O)c2ccc(Cl)cc2)cc1 [FENOFIBRATE]
- IC50 shift at 0.5 h (CYP2C19): < 2
- IC50 shift at 0.5 h (CYP2D6): 2
- Stability (Liver microsomes [6]): Stable
- IC50 shift at 0.5 h (CYP1A2): > 5
- IC50 shift at 0.5 h (CYP3A4 [4]): < 2

Structure (SMILES): CCN(CC)CCNc1ccc(CO)c2sc3ccccc3c(=O)c12 [HYCANTHONE]
- Stability (Liver microsomes [1]): Unstable
- IC50 shift at 0.5 h (CYP1A2): > 5
- IC50 shift at 0.5 h (CYP3A4 [4]): 2

Structure (SMILES): Clc1ccccc1C(c1ccccc1)(c1ccccc1)n1ccnc1 [CLOTRIMAZOLE]
- IC50 shift at 0.5 h (CYP2D6): < 2
- Stability (Liver microsomes [6]): Stable
- IC50 shift at 0.5 h (CYP1A2): 2

Structure (SMILES): CC/C(=C(/CC)c1ccc(O)cc1)c1ccc(O)cc1 [DIETHYLSTILBESTROL]
- Stability (Liver microsomes [1]): Unstable
- IC50 shift at 0.5 h (CYP1A2): 2

Structure (SMILES): Oc1ccc2c(c1)[C@@]13CCCC[C@@]1(O)[C@@H](C2)N(CC1CCC1)CC3 [BUTORPHANOL]
- IC50 shift at 0.5 h (CYP2D6; [7]): < 2
- Stability (Liver microsomes [6]): Stable

Structure (SMILES): COc1cc2c(c(OC)c1OC)-c1ccc(OC)c(=O)cc1[C@@H](NC(C)=O)CC2 [COLCHICINE]
- Stability (Liver microsomes [2]): Unstable

Structure (SMILES): CCOC(=O)n1ccn(C)c1=S [CARBIMAZOLE]
- Stability (Liver microsomes [1]): Unstable
- IC50 shift at 0.5 h (CYP3A4 [3]): > 5
- IC50 shift at 0.5 h (CYP2D6): > 5
- IC50 shift at 0.5 h (CYP3A4 [4]): > 5

Structure (SMILES): Nc1ccc(S(=O)(=O)c2ccc(N)cc2)cc1 [DAPSONE]
- Stability (Liver microsomes [2]): Unstable

Structure (SMILES): O=C(OCC(O)CO)c1ccccc1Nc1ccnc2cc(Cl)ccc12 (centres undefined) [GLAFENINE]
- Stability (Liver microsomes [2]): Unstable
